Read-outs that look alike come from different tables or passages of the source.
Legend:
[1] = tested on: PC-3 cells; test: MTT cytotoxicity assay against PC-3 cells; settings: read-out: IC50 (μM) ± SEM, 72 h
Description: For this purpose, PC-3 cells (Prostrate Cancer)/3T3(Mouse fibroblast) were cultured in Dulbecco's Modified Eagle's Medium, supplemented with 5% of foetal bovine serum (FBS), 100 IU/mL of penicillin and 100 μg/mL of streptomycin in 25 cm^3 flask and kept in 5% CO2 incubator at 37° C. Exponentially growing cells were harvested, counted with haemocytometer and diluted with a particular medium.
Subsequently, 100 μL of DMSO was added to each well. The extent of MTT reduction to formazan within cells was calculated by measuring the absorbance at 570 nm, using a microplate ELISA reader (Spectra Max plus, Molecular Devices, Calif., USA).

[2] = target: T1, β-glucuronidase (UniProt A3KMY8); test: β-Glucuronidase inhibition, spectrophotometric p-nitrophenyl-β-D-glucuronide assay; type: biochemical; settings: for % Inhibition: test concentration not given
T1 sequence (A3KMY8 1-652): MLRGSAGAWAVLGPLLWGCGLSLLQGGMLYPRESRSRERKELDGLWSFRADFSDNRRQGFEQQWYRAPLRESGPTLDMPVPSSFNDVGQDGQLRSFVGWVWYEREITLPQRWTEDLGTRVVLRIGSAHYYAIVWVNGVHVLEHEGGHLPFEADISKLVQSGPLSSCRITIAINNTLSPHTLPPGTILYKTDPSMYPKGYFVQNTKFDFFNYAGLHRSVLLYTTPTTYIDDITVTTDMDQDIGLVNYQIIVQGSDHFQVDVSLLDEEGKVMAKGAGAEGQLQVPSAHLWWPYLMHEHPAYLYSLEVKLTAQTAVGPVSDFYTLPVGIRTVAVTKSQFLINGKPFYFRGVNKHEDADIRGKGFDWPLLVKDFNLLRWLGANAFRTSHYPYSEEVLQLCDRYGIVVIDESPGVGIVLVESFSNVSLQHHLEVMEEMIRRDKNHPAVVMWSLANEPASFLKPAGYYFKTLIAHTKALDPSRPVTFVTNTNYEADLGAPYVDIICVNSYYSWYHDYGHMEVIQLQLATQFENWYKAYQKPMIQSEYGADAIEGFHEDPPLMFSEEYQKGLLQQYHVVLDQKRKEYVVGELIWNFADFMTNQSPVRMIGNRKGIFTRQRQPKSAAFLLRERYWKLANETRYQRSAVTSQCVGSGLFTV
Description: The total reaction volume was 250 μL. […] The reaction mixture contained 185 μL of 0.1 M acetate buffer, 5 μL of test compound solution, 10 μL of (1U) enzyme solution was incubated at 37° C. for 30 min. […] All assays were run in triplicate. IC50 Values were calculated by using EZ-Fit software (Perrella Scientific Inc., Amherst, Mass., USA). These values are the mean of three independent assays.

[3] = read-out: IC50 (μM) ± SEM, mean of three independent assays

SMILES: COc1ccc(-c2nc3ccccc3c(=O)[nH]2)cc1O [Compound 8, 2-[3-Hydroxy-4-(methyloxy)phenyl]quinazolin-4(3H)-one]
- IC50 [1]: > 30 µM
- IC50 [2, 3]: 2.8 ± 0.042 µM
- % Inhibition [2]: 84.0%

SMILES: Cc1ccc(-c2nc3ccccc3c(=O)[nH]2)cc1 [Compound 24, 2-(4-Methylphenyl)quinazolin-4(3H)-one]
- IC50 [1]: > 30 µM
- % Inhibition [2]: 96.3%

SMILES: O=c1[nH]c(-c2ccc(O)c(O)c2)nc2ccccc12 [Compound 5, 2-(3,4-Dihydroxyphenyl)quinazolin-4(3H)-one]
- IC50 [1]: > 30 µM

SMILES: CCOc1ccccc1-c1nc2ccccc2c(=O)[nH]1 [Compound 14, 2-[2-(Ethyloxy)phenyl]quinazolin-4(3H)-one]
- IC50 [1]: > 30 µM

SMILES: O=c1[nH]c(-c2ccccc2[N+](=O)[O-])nc2ccccc12 [Compound 20, 2-(2-Nitrophenyl)quinazolin-4(3H)-one]
- IC50 [1]: > 30 µM

SMILES: O=c1[nH]c(-c2c(O)cccc2Br)nc2ccccc12 [Compound 25, 2-(2-Bromo-6-hydroxyphenyl)quinazolin-4(3H)-one]
- IC50 [1]: > 30 µM

SMILES: O=c1[nH]c(-c2cccc([N+](=O)[O-])c2)nc2ccccc12 [Compound 21, 2-(3-Nitrophenyl)quinazolin-4(3H)-one]
- IC50 [1]: > 30 µM
- IC50 [2, 3]: 50.4 ± 1.4 µM
- % Inhibition [2]: 95.1%

SMILES: COc1ccc(-c2nc3ccccc3c(=O)[nH]2)cc1 [Compound 10, 2-[4-(Methyloxy)phenyl]quinazolin-4(3H)-one]
- IC50 [1]: > 30 µM
- IC50 [2, 3]: 1.1 ± 0.05 µM
- % Inhibition [2]: 99.7%

SMILES: O=c1[nH]c(-c2c(Cl)cccc2Cl)nc2ccccc12 [Compound 18, 2-(2,6-Dichlorophenyl)quinazolin-4(3H)-one]
- IC50 [1]: > 30 µM

SMILES: COc1ccc(O)c(-c2nc3ccccc3c(=O)[nH]2)c1 [Compound 7, 2-[2-Hydroxy-5-(methyloxy)phenyl]quinazolin-4(3H)-one]
- IC50 [1]: > 30 µM

SMILES: O=c1[nH]c(-c2ccc(Cl)cc2)nc2ccccc12 [Compound 19, 2-(4-Chlorophenyl)quinazolin-4(3H)-one]
- IC50 [1]: > 30 µM

SMILES: COc1cc(-c2nc3ccccc3c(=O)[nH]2)cc(OC)c1OC [Compound 12, 2-[3,4,5-Tris(methyloxy)phenyl]quinazolin-4(3H)-one]
- IC50 [1]: > 30 µM
- % Inhibition [2]: 97.6%
- IC50 ([2]; unit inferred): 120 ± 2.54 µM

SMILES: O=c1[nH]c(-c2cc(O)ccc2O)nc2ccccc12 [Compound 6, 2-(2,5-Dihydroxyphenyl)quinazolin-4(3H)-one]
- IC50 [1]: > 30 µM

SMILES: O=c1[nH]c(-c2ccc(O)cc2)nc2ccccc12 [Compound 3, 2-(4-Hydroxyphenyl)quinazolin-4(3H)-one]
- IC50 [1]: > 30 µM
- IC50 [2, 3]: 22.2 ± 0.31 µM
- % Inhibition [2]: 99.6%

SMILES: CN(C)c1ccc(-c2nc3ccccc3c(=O)[nH]2)cc1 [Compound 23, 2-[4-(Dimethylamino)phenyl]quinazolin-4(3H)-one]
- IC50 [1]: > 30 µM
- IC50 [2, 3]: 5.5 ± 0.1 µM
- % Inhibition [2]: 99.6%

SMILES: COc1ccc(-c2nc3ccccc3c(=O)[nH]2)cc1OC [Compound 11, 2-[3,4-Bis(methyloxy)phenyl]quinazolin-4(3H)-one]
- IC50 [1]: > 30 µM

SMILES: CCOc1cc(-c2nc3ccccc3c(=O)[nH]2)ccc1O [Compound 15, 2-[3-(Ethyloxy)-4-hydroxyphenyl]quinazolin-4(3H)-one]
- IC50 [1]: > 30 µM

SMILES: O=c1[nH]c(-c2ccccc2Cl)nc2ccccc12 [Compound 16, 2-(2-Chlorophenyl)quinazolin-4(3H)-one]
- IC50 [1]: > 30 µM

SMILES: O=c1[nH]c(-c2cccc(O)c2)nc2ccccc12 [Compound 4, 2-(3-Hydroxyphenyl)quinazolin-4(3H )-one]
- IC50 [1]: > 30 µM
- % Inhibition [2]: 78.5%

SMILES: O=c1[nH]c(-c2ccc(Cl)cc2Cl)nc2ccccc12 [Compound 17, 2-(2,4-Dichlorophenyl)quinazolin-4(3H)-one]
- IC50 [1]: > 30 µM

SMILES: O=c1[nH]c(-c2ccc([N+](=O)[O-])cc2)nc2ccccc12 [Compound 22, 2-(4-Nitrophenyl)quinazolin-4(3H)-one]
- IC50 [1]: > 30 µM
- IC50 [2, 3]: 20.1 ± 0.92 µM
- % Inhibition [2]: 96.4%

SMILES: CCOc1ccc(-c2nc3ccccc3c(=O)[nH]2)cc1 [Compound 13, 2-[4-(Ethyloxy)phenyl]quinazolin-4(3H)-one]
- IC50 [1]: > 30 µM

SMILES: O=c1[nH]c(-c2ccccc2O)nc2ccccc12 [Compound 2, 2-(2-Hydroxyphenyl)quinazolin-4(3H)-one]
- IC50 [1]: > 30 µM
- IC50 [2, 3]: 10 ± 0.54 µM
- % Inhibition [2]: 99.1%

— US20140256754A1, “QUINAZOLINES AS B-GLUCURONIDASE NOVEL INHIBITORS” (priority 2013, published 2014)
